In test [1] the test system is C. krusei. The test can be described thus: Antifungal Activity Assay (broth microtiter MIC), C. krusei. It counts as cell-based, Candida krusei. The settings on record: Pichia kudriavzevii, ATCC6258, 48 h. The method in brief:
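CLSI M27-A3 microdilution; RPMI 1640+MOPS; 2.5×10^3 CFU/mL final inoculum; cultures from Sabouraud dextrose agar, 35° C overnight; compound working solution 128 μg/mL from 1 mg/mL DMSO stock; visual MIC at 48 h vs growth control.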

Test [2] has as its system Fusarium moniliforme (Fm). The test can be described thus: Growth inhibition assay of fungal pathogens, Fm. The conditions noted are these: for IC90: Fusarium verticillioides, 48 h, read-out: Concentration at 90% Inhibition Fm. It counts as cell-based. The method in brief: (§1)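 Spore suspension in 17% V8 liquid media; cpd final 50/10/2 or 2/0.4/0.08 ppm, 2% DMSO. OD600 + visual, 24 & 48 h; % inhibition at 48 h vs 2% DMSO ctrl.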

The test system of test [3] is Fusarium virguliforme (Fv). The experiment in a line: Growth inhibition assay of fungal pathogens, Fv. The conditions noted are these: 48 h. It counts as cell-based. A digest of the protocol:
as §1

The mark [4] stands for this setting: read-out: MIC, C. krusei ATCC 6258, Table 3a, 3 replicates, MIC recorded at 48 h.
Where [5] appears, read: read-out: MIC, C. krusei ATCC 6258, Table 3b (additional results), 3 replicates, MIC recorded at 48 h.
Setting [6] is: Fusarium moniliforme, growth inhibition at 48 hours vs 2% DMSO control.
Where [7] appears, read: read-out: Concentration at 90% Inhibition Fv, Fusarium virguliforme, growth inhibition at 48 hours vs 2% DMSO control.
Where [8] appears, read: read-out: Concentration at 90% Inhibition Fv, Fusarium virguliforme, growth inhibition vs 2% DMSO control at 48 hours.
Setting [9] is: Table 3a, ATCC 6258, 3 replicates, MIC recorded at 48 h, read-out: MIC, C. krusei ATCC 6258.
[10] abbreviates: Table 3b (additional results), ATCC 6258, 3 replicates, MIC recorded at 48 h, read-out: MIC, C. krusei ATCC 6258.
Where [11] appears, read: Fusarium moniliforme, growth inhibition vs 2% DMSO control at 48 hours.
[12] abbreviates: growth inhibition at 48 hours vs 2% DMSO control, read-out: Concentration at 90% Inhibition Fv.
The mark [13] stands for this setting: growth inhibition vs 2% DMSO control at 48 hours, read-out: Concentration at 90% Inhibition Fv.

These results are taken from patent publication US10800791B2, “Triazole ACC inhibitors and uses thereof” (Gilead Apollo, LLC, priority 2015, dated 2020).

Values after ≈ are worked out from the molar mass of the structure shown. Like-named read-outs stand apart in the source and are kept apart here. Where only a bound is given, the exact number is not on record here.

Consider `COCCCO[C@@H](Cn1c(=O)n([C@@H](C)C(=O)NC(C)C)c(=O)c2c(C)c(-n3nccn3)sc21)c1cc(F)ccc1OC` [Compound I-86, (S)-2-(1-((R)-2-(5-fluoro-2-methoxyphenyl)-2-(3-methoxy-propoxy)ethyl)-5-methyl-2,4-dioxo-6-(2H-1,2,3-triazol-2-yl)-1,4-dihydrothieno[2,3-d]pyrimidin-3(2H)-yl)-N-isopropylpropanamide], for which the figures for the MIC in test [1] (setting [4]) and in test [1] (setting [5]) were 2.1 to 4 µg/mL (≈ 3.48 to 6.64 µM) and 1.01 to 2 µg/mL (≈ 1.68 to 3.32 µM), respectively. In test [2] (setting [6]), the “Concentration at 90% Inhibition Fm” value is recorded as “AA (compound concentration of 0.08 ppm at 90% inhibition of fungal pathogens)”. For the same compound, the IC90 was 0.08 µg/mL (≈ 0.133 µM) in test [2], 10 µg/mL (≈ 16.6 µM) in test [3] (setting [7]) and over 50 µg/mL in test [3] (setting [8]).
`COCCCO[C@@H](Cn1c(=O)n([C@H](C)C(=O)NC(C)C)c(=O)c2c(C)c(-n3nccn3)sc21)c1cc(F)ccc1OC` [Compound I-87, (R)-2-(1-((R)-2-(5-fluoro-2-methoxyphenyl)-2-(3-methoxy-propoxy)ethyl)-5-methyl-2,4-dioxo-6-(2H-1,2,3-triazol-2-yl)-1,4-dihydrothieno[2,3-d]pyrimidin-3(2H)-yl)-N-isopropylpropanamide]: the MIC in test [1] (setting [9]) lay in the range of 1.1 to 2 µg/mL (≈ 1.83 to 3.32 µM); in test [1] (setting [10]), 1.01 to 2 µg/mL (≈ 1.68 to 3.32 µM). The IC90 in test [2] (setting [6]), in test [2] (setting [11]), in test [3] (setting [12]) and in test [3] (setting [13]) was 0.08 µg/mL (≈ 0.133 µM) throughout.
For the compound `COc1ccc(F)cc1[C@H](Cn1c(=O)n([C@@H](C)C(=O)NC(C)C)c(=O)c2c(C)c(-n3nccn3)sc21)OCCO` [Compound I-88, (S)-2-(1-((R)-2-(5-fluoro-2-methoxyphenyl)-2-(2-hydroxyethoxy)ethyl)-5-methyl-2,4-dioxo-6-(2H-1,2,3-triazol-2-yl)-1,4-dihydro-thieno[2,3-d]pyrimidin-3(2H)-yl)-N-isopropylpropanamide], the figures for the MIC in test [1] (setting [4]) and in test [1] (setting [5]) were 0.25 to 1 µg/mL (≈ 0.435 to 1.74 µM) and 1.01 to 2 µg/mL (≈ 1.76 to 3.48 µM), respectively. Besides, the “Concentration at 90% Inhibition Fm” value in test [2] (setting [6]) was “AA (compound concentration of 0.08 ppm at 90% inhibition of fungal pathogens)”. In addition, the IC90 in test [2] was found to be 0.08 µg/mL (≈ 0.139 µM); in test [3] (setting [7]), 2 µg/mL (≈ 3.48 µM); in test [3] (setting [8]), 2 µg/mL (≈ 3.48 µM).
Take `COc1ccc(F)cc1[C@H](Cn1c(=O)n([C@H](C)C(=O)NC(C)C)c(=O)c2c(C)c(-n3nccn3)sc21)OCCO` [Compound I-89, (R)-2-(1-((R)-2-(5-fluoro-2-methoxyphenyl)-2-(2-hydroxy-ethoxy)ethyl)-5-methyl-2,4-dioxo-6-(2H-1,2,3-triazol-2-yl)-1,4-dihydrothieno[2,3-d]pyrimidin-3(2H)-yl)-N-isopropylpropanamide]: the MIC in test [1] (setting [4]) was 2.1 to 4 µg/mL (≈ 3.65 to 6.96 µM); in test [1] (setting [5]) it was 1.01 to 2 µg/mL (≈ 1.76 to 3.48 µM). The “Concentration at 90% Inhibition Fm” value in test [2] (setting [6]) is on record as “AA (compound concentration of 0.08 ppm at 90% inhibition of fungal pathogens)”. Further, the results for the IC90 in test [2], in test [3] (setting [7]) and in test [3] (setting [8]) were 0.08 µg/mL (≈ 0.139 µM), 2 µg/mL (≈ 3.48 µM) and 2 µg/mL (≈ 3.48 µM), respectively.
`COc1ccc(F)cc1[C@H](Cn1c(=O)n(C(C)(C)C(=O)NC(C)C)c(=O)c2c(C)c(-n3nccn3)sc21)OCCC(N)=O` [Compound I-90, (R)-2-(1-(2-(3-amino-3-oxopropoxy)-2-(5-fluoro-2-metho-xyphenyl)ethyl)-5-methyl-2,4-dioxo-6-(2H-1,2,3-triazol-2-yl)-1,4-dihydro-thieno[2,3-d]pyrimidin-3(2H)-yl)-N-isopropyl-2-methylpropanamide]: the minimal inhibitory concentration (MIC) was 1.1 to 2 µg/mL (≈ 1.79 to 3.25 µM) in test [1] (setting [9]) and 0.25 to 1 µg/mL (≈ 0.406 to 1.62 µM) in test [1] (setting [10]). Moreover, the IC90 in test [2] (setting [6]), in test [2] (setting [11]), in test [3] (setting [12]) and in test [3] (setting [13]) was 0.4 µg/mL (≈ 0.65 µM) in each case.
Regarding `COc1ccc(F)cc1[C@H](Cn1c(=O)n(C(C)(C)C(=O)NC(C)C)c(=O)c2c(C)c(-n3nccn3)sc21)OCCC#N` [Compound I-91, (R)-2-(1-(2-(2-cyanoethoxy)-2-(5-fluoro-2-methoxy-phenyl)ethyl)-5-methyl-2,4-dioxo-6-(2H-1,2,3-triazol-2-yl)-1,4-dihydro-thieno[2,3-d]pyrimidin-3(2H)-yl)-N-isopropyl-2-methylpropanamide], the minimum inhibitory concentration (MIC) in test [1] (setting [9]) lay in the range of 0.06 to 0.24 µg/mL (≈ 0.1 to 0.402 µM); in test [1] (setting [10]), 0.25 to 1 µg/mL (≈ 0.418 to 1.67 µM). Besides, the IC90 in test [2] (setting [6]), in test [2] (setting [11]), in test [3] (setting [12]) and in test [3] (setting [13]) was 0.08 µg/mL (≈ 0.134 µM) each time.
